Assay results reported in article PMC12332266 (Frontiers in Pharmacology, 2025).
Structures can show the parent of a compound that is named as a salt. Where two headings read alike, the source gives them in different places.

Assays:
[1] = system: hiPSC-CM (iCell Cardiomyocytes^2); test: RTCA CardioECR assessment (impedance and electrophysiology parameters)
Protocol: (§1) Culture media change was performed every 2 days.
After seeding on fibronectin-coated xCELLigence ePlates (Agilent Technologies, Inc. Santa Clara, CA, USA), iCell^2 CM were monitored continuously through impedance electrodes. The following impedance parameters were measured: Cell Index (CI, measure of cell “health” and monolayer integrity), beating rate (BR) and amplitude (CI Amplitude, magnitude of contraction). Electrophysiology-like parameters (Field Potential Duration (FPD), considered as a surrogate for QT in in vivo studies, and Spike Amplitude (SA), depolarization induced by Na^+ channel opening) were measured starting from day 4–6, following the monolayer formation. […] All RTCA CardioECR data were double normalized (DMSO control and the baseline) with no further statistical group comparison for the normalized parameters. The variability of the data within the treatment groups was assessed by standard deviation.

[2] = system: hiPSC-CM (iCell Cardiomyocytes^2); test: Intracellular miRNA expression by RT-qPCR in hiPSC-CM pellets after 72-hour treatment
Protocol: as §1
Total RNA was extracted from hiPSC-CM using the miRNeasy 96 Kit (Qiagen, Hilden, Germany) following the manufacturer’s recommendations. After the extraction, RNA purity was assessed by NanoDrop™ 8000 Spectrophotometer (Thermo Fisher Scientific Inc.). 5–10 ng/μL of RNA per sample were reverse transcribed and pre-amplified by using the TaqMan™ Advanced miRNA cDNA Synthesis Kit (Thermo Fisher Scientific Inc.). The synthesized cDNA was used for RT-qPCR with selected TaqMan™ assays (Thermo Fischer Scientific Inc.). RT-qPCR was carried out following the Applied Biosciences TaqMan miRNA expression assay protocol on a ViiA7 instrument (Thermo Fisher Scientific, Inc.). […] Therefore, to maximize the number of drugs and concentrations, explored in the same study, we pooled the triplicates for intracellular profiling of miRNAs. Therefore, no statistical analysis was performed on the data of miRNA profiling in the pellets of hiPSC-CM.
Following RTCA CardioECR assessment, hiPSC-CM cell pellets were collected, and total RNA was extracted and purified to investigate miRNAs upregulation by RT-qPCR. […] For the initial assessment of intracellular miRNAs in 12 different treatments, encompassing various drug classes, we used a panel of 17 miRNAs, which we selected from the publicly available data focusing mainly on in vitro models and structural cardiotoxicants (Supplementary Table S2).

[3] = ref extensive literature search, cited from earlier work
[4] = hiPSC-CM, 72-hour treatment, Supplementary Table 1
[5] = hiPSC-CM, 72-hour treatment, change from baseline
[6] = hiPSC-CM, 72-hour treatment, lowest concentration causing at least 20% change from baseline

CC(C)C[C@H](NC(=O)CNC(=O)c1cc(Cl)ccc1Cl)B1OC(=O)C(CC(=O)O)(CC(=O)O)O1 [Ixazomib Citrate]
Contractility Amplitude magnitude of effect at MEC ([1]; hiPSC-CM, 72-hour treatment): -94%
Field Potential Duration magnitude of effect at MEC ([1]; hiPSC-CM, 72-hour treatment): -35%
Spike Amplitude (SA) magnitude of effect at MEC ([1]; hiPSC-CM, 72-hour treatment): +75%
Beating Rate magnitude of effect at MEC [1, 4]: +33%
Cell Index magnitude of effect at MEC [1, 4]: -37%
Field Potential Duration MEC ([1]; hiPSC-CM, 72-hour treatment, at least 10% change): 0.03 µM
Contractility Amplitude MEC ([1]; hiPSC-CM, 72-hour treatment, at least 20% change): 0.1 µM
Beating Rate MEC ([1]; hiPSC-CM, 72-hour treatment, at least 20% change, Supplementary Table 1): 0.03 µM
Spike Amplitude (SA) MEC ([1]; hiPSC-CM, 72-hour treatment, at least 40% change): 0.03 µM
Beating rate (BR) magnitude of effect at MEC [1, 5]: +33%
Cell index (CI) magnitude of effect at MEC [1, 5]: −37%
Beating rate (BR) MEC [1, 6]: 0.03 µM
Cell index (CI) MEC [1, 6]: 0.3 µM
RTCA, MEC (BR) ([1]; hiPSC-CM, change ≥20%, Table 2): 0.03 µM
RTCA, MEC (CI) ([1]; hiPSC-CM, change ≥20%, Table 2): 0.3 µM
hsa-miR-7-5p fold change, intracellular ([2]; 0.03 µM, 72 h): 2.0
hsa-miR-29a-5p fold change, intracellular ([2]; 0.03 µM, 72 h): 1.5
hsa-miR-96-5p fold change, intracellular ([2]; 0.03 µM, 72 h): 8.8
hsa-miR-126-3p fold change, intracellular ([2]; 0.03 µM, 72 h): 1.7
hsa-miR-133b fold change, intracellular ([2]; 0.03 µM, 72 h): 1.2
hsa-miR-146b-5p fold change, intracellular ([2]; 0.03 µM, 72 h): 1.0
hsa-miR-182-5p fold change, intracellular ([2]; 0.03 µM, 72 h): 1.4
hsa-miR-185-3p fold change, intracellular ([2]; 0.03 µM, 72 h): 1.0
hsa-miR-187-3p fold change, intracellular ([2]; 0.03 µM, 72 h): 1.1
hsa-miR-208b-3p fold change, intracellular ([2]; 0.03 µM, 72 h): 0.9
hsa-miR-7-5p fold change, intracellular ([2]; 0.1 µM, 72 h): 0.3
hsa-miR-29a-5p fold change, intracellular ([2]; 0.1 µM, 72 h): 2.0
hsa-miR-96-5p fold change, intracellular ([2]; 0.1 µM, 72 h): 6.4
hsa-miR-126-3p fold change, intracellular ([2]; 0.1 µM, 72 h): 1.8
hsa-miR-133b fold change, intracellular ([2]; 0.1 µM, 72 h): 25.3
hsa-miR-146b-5p fold change, intracellular ([2]; 0.1 µM, 72 h): 1.9
hsa-miR-182-5p fold change, intracellular ([2]; 0.1 µM, 72 h): 34.9
hsa-miR-185-3p fold change, intracellular ([2]; 0.1 µM, 72 h): 0.4
hsa-miR-187-3p fold change, intracellular ([2]; 0.1 µM, 72 h): 3.1
hsa-miR-208b-3p fold change, intracellular ([2]; 0.1 µM, 72 h): 0.0
hsa-miR-365a-5p fold change, intracellular ([2]; 0.1 µM, 72 h): 44.3
hsa-miR-7-5p fold change, intracellular ([2]; 0.3 µM, 72 h): 6.9
hsa-miR-29a-5p fold change, intracellular ([2]; 0.3 µM, 72 h): 1.7
hsa-miR-96-5p fold change, intracellular ([2]; 0.3 µM, 72 h): 13.0
hsa-miR-126-3p fold change, intracellular ([2]; 0.3 µM, 72 h): 2.7
hsa-miR-133b fold change, intracellular ([2]; 0.3 µM, 72 h): 0.4
hsa-miR-146b-5p fold change, intracellular ([2]; 0.3 µM, 72 h): 7.1
hsa-miR-182-5p fold change, intracellular ([2]; 0.3 µM, 72 h): 8.5
hsa-miR-185-3p fold change, intracellular ([2]; 0.3 µM, 72 h): 2.0
hsa-miR-187-3p fold change, intracellular ([2]; 0.3 µM, 72 h): 1.6
hsa-miR-208b-3p fold change, intracellular ([2]; 0.3 µM, 72 h): 0.8
hsa-miR-365a-5p fold change, intracellular ([2]; 0.3 µM, 72 h): 2.5
hsa-miR-7-5p fold change, intracellular ([2]; 1 µM, 72 h): 12.6
hsa-miR-29a-5p fold change, intracellular ([2]; 1 µM, 72 h): 4.7
hsa-miR-96-5p fold change, intracellular ([2]; 1 µM, 72 h): 13.4
hsa-miR-126-3p fold change, intracellular ([2]; 1 µM, 72 h): 3.1
hsa-miR-133b fold change, intracellular ([2]; 1 µM, 72 h): 0.6
hsa-miR-146b-5p fold change, intracellular ([2]; 1 µM, 72 h): 3.2
hsa-miR-182-5p fold change, intracellular ([2]; 1 µM, 72 h): 5.6
hsa-miR-185-3p fold change, intracellular ([2]; 1 µM, 72 h): 0.9
hsa-miR-187-3p fold change, intracellular ([2]; 1 µM, 72 h): 2.4
hsa-miR-208b-3p fold change, intracellular ([2]; 1 µM, 72 h): 0.9
intracellular miRNA upregulation in hiPSC-CM, in words ([2]; 72-hour treatment, four concentrations per drug): highly upregulated hsa-miR-133b, hsa-miR-182-5pand hsa-miR-365a-5p
miRNAs upregulated at the MEC overall (hiPSC-CM pellet) ([2]; fold change ≥2, 72 h): miR-126-3p, miR-29a-5p, miR-7-5p, miR-96-5p
miRNAs hiPSC-CM pellet, MEC overall ([2]; lowest concentration tested which produced miRNA upregulation (fold change ≥2), 72 h): 0.03 µM
Cmax total ([3]; Supplementary Table 1): 213 nM
Cmax total ([3]; Table 1): 210 nM

Cc1cn(-c2cc(NC(=O)c3ccc(C)c(Nc4nccc(-c5cccnc5)n4)c3)cc(C(F)(F)F)c2)cn1 [Nilotinib]
Cell index (CI) MEC [1, 6]: ND (ND – not detected, magnitude of change was lower than 20%)
RTCA, MEC (CI) ([1]; hiPSC-CM, change ≥20%, Table 2): ND (ND – not detected, magnitude of change was lower than 20% for CI/BR)
Contractility Amplitude MEC ([1]; human, 72 h): 0.1 µM
Spike Amplitude (SA) MEC ([1]; human, 72 h): 0.01 µM
intracellular miRNA upregulation in hiPSC-CM, in words [2]: smallest fold change
miRNAs hiPSC-CM pellet, MEC overall [2]: 0.3 µM
miRNAs upregulated at the MEC overall (hiPSC-CM pellet) [2]: miR-126-3p
hsa-miR-7-5p fold change, intracellular ([2]; 0.01 µM, 72 h): 1.2
hsa-miR-29a-5p fold change, intracellular ([2]; 0.01 µM, 72 h): 0.5
hsa-miR-126-3p fold change, intracellular ([2]; 0.01 µM, 72 h): 1.4
hsa-miR-133b fold change, intracellular ([2]; 0.01 µM, 72 h): 0.3
hsa-miR-146b-5p fold change, intracellular ([2]; 0.01 µM, 72 h): 0.2
hsa-miR-182-5p fold change, intracellular ([2]; 0.01 µM, 72 h): 0.3
hsa-miR-185-3p fold change, intracellular ([2]; 0.01 µM, 72 h): 0.7
hsa-miR-187-3p fold change, intracellular ([2]; 0.01 µM, 72 h): 0.7
hsa-miR-208b-3p fold change, intracellular ([2]; 0.01 µM, 72 h): 1.0
hsa-miR-365a-5p fold change, intracellular ([2]; 0.01 µM, 72 h): 0.8
hsa-miR-7-5p fold change, intracellular ([2]; 0.1 µM, 72 h): 1.2
hsa-miR-29a-5p fold change, intracellular ([2]; 0.1 µM, 72 h): 0.2
hsa-miR-96-5p fold change, intracellular ([2]; 0.1 µM, 72 h): 0.3
hsa-miR-126-3p fold change, intracellular ([2]; 0.1 µM, 72 h): 3.0
hsa-miR-133b fold change, intracellular ([2]; 0.1 µM, 72 h): 0.2
hsa-miR-146b-5p fold change, intracellular ([2]; 0.1 µM, 72 h): 0.2
hsa-miR-182-5p fold change, intracellular ([2]; 0.1 µM, 72 h): 0.2
hsa-miR-185-3p fold change, intracellular ([2]; 0.1 µM, 72 h): 1.5
hsa-miR-187-3p fold change, intracellular ([2]; 0.1 µM, 72 h): 0.7
hsa-miR-208b-3p fold change, intracellular ([2]; 0.1 µM, 72 h): 1.1
hsa-miR-365a-5p fold change, intracellular ([2]; 0.1 µM, 72 h): 0.2
hsa-miR-7-5p fold change, intracellular ([2]; 0.3 µM, 72 h): 0.5
hsa-miR-29a-5p fold change, intracellular ([2]; 0.3 µM, 72 h): 0.2
hsa-miR-126-3p fold change, intracellular ([2]; 0.3 µM, 72 h): 4.3
hsa-miR-133b fold change, intracellular ([2]; 0.3 µM, 72 h): 0.4
hsa-miR-146b-5p fold change, intracellular ([2]; 0.3 µM, 72 h): 0.2
hsa-miR-182-5p fold change, intracellular ([2]; 0.3 µM, 72 h): 0.7
hsa-miR-185-3p fold change, intracellular ([2]; 0.3 µM, 72 h): 0.7
hsa-miR-187-3p fold change, intracellular ([2]; 0.3 µM, 72 h): 0.5
hsa-miR-208b-3p fold change, intracellular ([2]; 0.3 µM, 72 h): 0.5
hsa-miR-365a-5p fold change, intracellular ([2]; 0.3 µM, 72 h): 0.7
hsa-miR-7-5p fold change, intracellular ([2]; 1 µM, 72 h): 0.9
hsa-miR-29a-5p fold change, intracellular ([2]; 1 µM, 72 h): 0.4
hsa-miR-96-5p fold change, intracellular ([2]; 1 µM, 72 h): 1.4
hsa-miR-126-3p fold change, intracellular ([2]; 1 µM, 72 h): 5.5
hsa-miR-133b fold change, intracellular ([2]; 1 µM, 72 h): 0.3
hsa-miR-146b-5p fold change, intracellular ([2]; 1 µM, 72 h): 0.3
hsa-miR-182-5p fold change, intracellular ([2]; 1 µM, 72 h): 0.4
hsa-miR-185-3p fold change, intracellular ([2]; 1 µM, 72 h): 0.3
hsa-miR-187-3p fold change, intracellular ([2]; 1 µM, 72 h): 0.7
hsa-miR-208b-3p fold change, intracellular ([2]; 1 µM, 72 h): 1.2
Cmax total ([3]; Supplementary Table 1): 840 to 4270 nM
Cmax total ([3]; Table 1): 840 to 4270 nM
